Test system: six V600E BRAF melanoma cell lines
Assay: Screening of recombinant RTK ligands for ability to confer resistance to BRAFi (PLX4720) or MEKi (PD184352) (Table 4)
Type: cell-based, human
Set-up: ability of recombinant RTK ligand to confer resistance / ability of recombinant RTK ligand to confer resistance (screening value): scale not given here
Procedure, shortened: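 Six V600E BRAF melanoma lines treated with PLX4720 or PD184352 after addition of 22 recombinant RTK ligands, scored for drug resistance. Activation of selected RTKs confirmed by western blotting and high-throughput tyrosine kinase phosphorylation profiling.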

For Collagen II, the “ability of recombinant RTK ligand to confer resistance” value (“ability of recombinant RTK ligand” below) (A2058, PD184352 - 1 uM, ligand 6.25 ng/ml) was 0.97, the “ability of recombinant RTK ligand” value (A2058, PD184352 - 1 uM, ligand 25 ng/ml) was 0.97 and the “ability of recombinant RTK ligand” value (A2058, PD184352 - 1 uM, ligand 100 ng/ml) was 0.99. The “ability of recombinant RTK ligand” value (A2058, PD184352 - 1 uM, ligand 400 ng/ml) was 1.00, the “ability of recombinant RTK ligand” value (A2058, PD184352 - 1 uM, ligand 1600 ng/ml) was 0.92 and the “ability of recombinant RTK ligand” value (A2058, PLX4720 - 2 uM, ligand 6.25 ng/ml) was 0.95. The “ability of recombinant RTK ligand” value (A2058, PLX4720 - 2 uM, ligand 25 ng/ml) was 0.99, the “ability of recombinant RTK ligand” value (A2058, PLX4720 - 2 uM, ligand 100 ng/ml) was 0.96 and the “ability of recombinant RTK ligand” value (A2058, PLX4720 - 2 uM, ligand 400 ng/ml) was 0.95. For the same substance, the “ability of recombinant RTK ligand” value (A2058, PLX4720 - 2 uM, ligand 1600 ng/ml) was 0.96, the “ability of recombinant RTK ligand” value (C32, PD184352 - 1 uM, ligand 6.25 ng/ml) was 0.99 and the “ability of recombinant RTK ligand” value (C32, PD184352 - 1 uM, ligand 25 ng/ml) was 1.03. For the same substance, the “ability of recombinant RTK ligand” value (C32, PD184352 - 1 uM, ligand 100 ng/ml) was 1.06, the “ability of recombinant RTK ligand” value (C32, PD184352 - 1 uM, ligand 400 ng/ml) was 1.18 and the “ability of recombinant RTK ligand” value (C32, PD184352 - 1 uM, ligand 1600 ng/ml) was 1.14. For the same substance, the “ability of recombinant RTK ligand” value (C32, PLX4720 - 2 uM, ligand 6.25 ng/ml) was 1.03, the “ability of recombinant RTK ligand” value (C32, PLX4720 - 2 uM, ligand 25 ng/ml) was 0.99 and the “ability of recombinant RTK ligand” value (C32, PLX4720 - 2 uM, ligand 100 ng/ml) was 0.99. The “ability of recombinant RTK ligand” value (C32, PLX4720 - 2 uM, ligand 400 ng/ml) was 1.00, the “ability of recombinant RTK ligand” value (C32, PLX4720 - 2 uM, ligand 1600 ng/ml) was 1.02 and the “ability of recombinant RTK ligand” value (Colo 829, PD184352 - 1 uM, ligand 6.25 ng/ml) was 0.95. The “ability of recombinant RTK ligand” value (Colo 829, PD184352 - 1 uM, ligand 25 ng/ml) was 1.02, the “ability of recombinant RTK ligand” value (Colo 829, PD184352 - 1 uM, ligand 100 ng/ml) was 1.04 and the “ability of recombinant RTK ligand” value (Colo 829, PD184352 - 1 uM, ligand 400 ng/ml) was 1.02. The “ability of recombinant RTK ligand” value (Colo 829, PD184352 - 1 uM, ligand 1600 ng/ml) was 0.99, the “ability of recombinant RTK ligand” value (Colo 829, PLX4720 - 2 uM, ligand 6.25 ng/ml) was 1.00 and the “ability of recombinant RTK ligand” value (Colo 829, PLX4720 - 2 uM, ligand 25 ng/ml) was 1.13. For the same substance, the “ability of recombinant RTK ligand” value (Colo 829, PLX4720 - 2 uM, ligand 100 ng/ml) was 1.06, the “ability of recombinant RTK ligand” value (Colo 829, PLX4720 - 2 uM, ligand 400 ng/ml) was 1.02 and the “ability of recombinant RTK ligand” value (Colo 829, PLX4720 - 2 uM, ligand 1600 ng/ml) was 0.98. For the same substance, the “ability of recombinant RTK ligand” value (G-361, PD184352 - 1 uM, ligand 6.25 ng/ml) was 0.96, the “ability of recombinant RTK ligand” value (G-361, PD184352 - 1 uM, ligand 25 ng/ml) was 1.00 and the “ability of recombinant RTK ligand” value (G-361, PD184352 - 1 uM, ligand 100 ng/ml) was 0.96. For the same substance, the “ability of recombinant RTK ligand” value (G-361, PD184352 - 1 uM, ligand 400 ng/ml) was 1.01, the “ability of recombinant RTK ligand” value (G-361, PD184352 - 1 uM, ligand 1600 ng/ml) was 1.03 and the “ability of recombinant RTK ligand” value (G-361, PLX4720 - 2 uM, ligand 6.25 ng/ml) was 0.97. For the same substance, the “ability of recombinant RTK ligand” value (G-361, PLX4720 - 2 uM, ligand 25 ng/ml) was 0.91, the “ability of recombinant RTK ligand” value (G-361, PLX4720 - 2 uM, ligand 100 ng/ml) was 0.92 and the “ability of recombinant RTK ligand” value (G-361, PLX4720 - 2 uM, ligand 400 ng/ml) was 0.96. For the same substance, the “ability of recombinant RTK ligand” value (G-361, PLX4720 - 2 uM, ligand 1600 ng/ml) was 0.92, the “ability of recombinant RTK ligand” value (SK-MEL-5, PD184352 - 1 uM, ligand 6.25 ng/ml) was 0.96 and the “ability of recombinant RTK ligand” value (SK-MEL-5, PD184352 - 1 uM, ligand 25 ng/ml) was 0.92. For the same substance, the “ability of recombinant RTK ligand” value (SK-MEL-5, PD184352 - 1 uM, ligand 100 ng/ml) was 0.94, the “ability of recombinant RTK ligand” value (SK-MEL-5, PD184352 - 1 uM, ligand 400 ng/ml) was 0.99 and the “ability of recombinant RTK ligand” value (SK-MEL-5, PD184352 - 1 uM, ligand 1600 ng/ml) was 0.94. The “ability of recombinant RTK ligand” value (SK-MEL-5, PLX4720 - 2 uM, ligand 6.25 ng/ml) was 1.03, the “ability of recombinant RTK ligand” value (SK-MEL-5, PLX4720 - 2 uM, ligand 25 ng/ml) was 1.10 and the “ability of recombinant RTK ligand” value (SK-MEL-5, PLX4720 - 2 uM, ligand 100 ng/ml) was 1.06. For the same substance, the “ability of recombinant RTK ligand” value (SK-MEL-5, PLX4720 - 2 uM, ligand 400 ng/ml) was 1.00, the “ability of recombinant RTK ligand” value (SK-MEL-5, PLX4720 - 2 uM, ligand 1600 ng/ml) was 1.08 and the “ability of recombinant RTK ligand” value (SK-MEL-28, PD184352 - 1 uM, ligand 6.25 ng/ml) was 0.98. The “ability of recombinant RTK ligand” value (SK-MEL-28, PD184352 - 1 uM, ligand 25 ng/ml) was 1.10, the “ability of recombinant RTK ligand” value (SK-MEL-28, PD184352 - 1 uM, ligand 100 ng/ml) was 0.98 and the “ability of recombinant RTK ligand” value (SK-MEL-28, PD184352 - 1 uM, ligand 400 ng/ml) was 0.94. The “ability of recombinant RTK ligand” value (SK-MEL-28, PD184352 - 1 uM, ligand 1600 ng/ml) was 1.07, the “ability of recombinant RTK ligand” value (SK-MEL-28, PLX4720 - 2 uM, ligand 6.25 ng/ml) was 0.94 and the “ability of recombinant RTK ligand” value (SK-MEL-28, PLX4720 - 2 uM, ligand 25 ng/ml) was 1.12. For the same substance, the “ability of recombinant RTK ligand” value (SK-MEL-28, PLX4720 - 2 uM, ligand 100 ng/ml) was 0.98, the “ability of recombinant RTK ligand” value (SK-MEL-28, PLX4720 - 2 uM, ligand 400 ng/ml) was 0.95 and the “ability of recombinant RTK ligand” value (SK-MEL-28, PLX4720 - 2 uM, ligand 1600 ng/ml) was 0.96.
